Columns and labels:
Experiment in all cases: biochemical
Design in all cases: KINOMEscan scanMAX active site-directed competition binding assay, percent of control, 468 kinases
Details in all cases: competition binding, percent of control
PRKD3 = PRKD3 (Homo sapiens, UniProt O94806)
Method in brief: (§1)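 Single-concentration screen (100 μM S-carvone) in a competition binding panel of 468 human kinases (KINOMEscan scanMAX); results given as percent of control, hit cutoff 35%.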

CSNK1G3 = CSNK1G3 (Homo sapiens, UniProt Q9Y6M4)
Method in brief: as §1

MET(M1250T) = MET(M1250T) (Homo sapiens, UniProt P08581, M1250T)
Method in brief: as §1

EGFR(S752-I759del) = EGFR(S752-I759del) (Homo sapiens, UniProt P00533, DEL752-759)
Method in brief: as §1

ULK2 = ULK2 (Homo sapiens, UniProt Q8IYT8)
Method in brief: as §1

MEK4 = molecular target: T1, MEK4 (Homo sapiens, UniProt P45985)
T1 construct: gene MAP2K4
Method in brief: as §1

EGFR(E746-A750del) = EGFR(E746-A750del) (Homo sapiens, UniProt P00533, DEL746-750)
Method in brief: as §1

IGF1R = IGF1R (Homo sapiens, UniProt P08069)
Method in brief: as §1

EPHB3 = EPHB3 (Homo sapiens, UniProt P54753)
Method in brief: as §1

MAP3K1 = MAP3K1 (Homo sapiens, UniProt Q13233)
Method in brief: as §1

MAP4K3 = MAP4K3 (Homo sapiens, UniProt Q8IVH8)
Method in brief: as §1

FER = FER (Homo sapiens, UniProt P16591)
Method in brief: as §1

ASK1 = molecular target: T2, ASK1 (Homo sapiens, UniProt Q99683)
T2 construct: gene MAP3K5
Method in brief: as §1

DCAMKL2 = molecular target: T3, DCAMKL2 (Homo sapiens, UniProt Q8N568)
T3 construct: gene DCLK2
Method in brief: as §1

IRAK3 = IRAK3 (Homo sapiens, UniProt Q9Y616)
Method in brief: as §1

PAK4 = PAK4 (Homo sapiens, UniProt O96013)
Method in brief: as §1

KIT(D816H) = KIT(D816H) (Homo sapiens, UniProt P10721, D816H)
Method in brief: as §1

MLCK = molecular target: T4, MLCK (Homo sapiens, UniProt Q32MK0)
T4 construct: gene MYLK3
Method in brief: as §1

GSK3B = GSK3B (Homo sapiens, UniProt P49841)
Method in brief: as §1

ULK3 = ULK3 (Homo sapiens, UniProt Q6PHR2)
Method in brief: as §1

LTK = LTK (Homo sapiens, UniProt P29376)
Method in brief: as §1

PKMYT1 = PKMYT1 (Homo sapiens, UniProt Q99640)
Method in brief: as §1

Sequence of PKMYT1 (Q99640 whole entry): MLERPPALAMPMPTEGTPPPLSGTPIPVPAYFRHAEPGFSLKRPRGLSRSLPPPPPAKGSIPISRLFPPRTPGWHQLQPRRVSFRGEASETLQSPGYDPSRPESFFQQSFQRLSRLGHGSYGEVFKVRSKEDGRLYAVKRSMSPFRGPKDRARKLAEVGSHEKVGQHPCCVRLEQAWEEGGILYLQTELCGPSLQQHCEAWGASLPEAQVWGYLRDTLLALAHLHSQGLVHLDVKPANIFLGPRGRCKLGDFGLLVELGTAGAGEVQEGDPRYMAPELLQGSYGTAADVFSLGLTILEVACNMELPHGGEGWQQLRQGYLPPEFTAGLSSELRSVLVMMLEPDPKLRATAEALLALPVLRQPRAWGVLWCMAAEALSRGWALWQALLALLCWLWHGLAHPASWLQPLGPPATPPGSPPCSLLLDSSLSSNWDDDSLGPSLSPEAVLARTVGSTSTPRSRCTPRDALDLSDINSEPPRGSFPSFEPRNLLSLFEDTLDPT
Sequence of ULK2 (Q8IYT8 whole entry): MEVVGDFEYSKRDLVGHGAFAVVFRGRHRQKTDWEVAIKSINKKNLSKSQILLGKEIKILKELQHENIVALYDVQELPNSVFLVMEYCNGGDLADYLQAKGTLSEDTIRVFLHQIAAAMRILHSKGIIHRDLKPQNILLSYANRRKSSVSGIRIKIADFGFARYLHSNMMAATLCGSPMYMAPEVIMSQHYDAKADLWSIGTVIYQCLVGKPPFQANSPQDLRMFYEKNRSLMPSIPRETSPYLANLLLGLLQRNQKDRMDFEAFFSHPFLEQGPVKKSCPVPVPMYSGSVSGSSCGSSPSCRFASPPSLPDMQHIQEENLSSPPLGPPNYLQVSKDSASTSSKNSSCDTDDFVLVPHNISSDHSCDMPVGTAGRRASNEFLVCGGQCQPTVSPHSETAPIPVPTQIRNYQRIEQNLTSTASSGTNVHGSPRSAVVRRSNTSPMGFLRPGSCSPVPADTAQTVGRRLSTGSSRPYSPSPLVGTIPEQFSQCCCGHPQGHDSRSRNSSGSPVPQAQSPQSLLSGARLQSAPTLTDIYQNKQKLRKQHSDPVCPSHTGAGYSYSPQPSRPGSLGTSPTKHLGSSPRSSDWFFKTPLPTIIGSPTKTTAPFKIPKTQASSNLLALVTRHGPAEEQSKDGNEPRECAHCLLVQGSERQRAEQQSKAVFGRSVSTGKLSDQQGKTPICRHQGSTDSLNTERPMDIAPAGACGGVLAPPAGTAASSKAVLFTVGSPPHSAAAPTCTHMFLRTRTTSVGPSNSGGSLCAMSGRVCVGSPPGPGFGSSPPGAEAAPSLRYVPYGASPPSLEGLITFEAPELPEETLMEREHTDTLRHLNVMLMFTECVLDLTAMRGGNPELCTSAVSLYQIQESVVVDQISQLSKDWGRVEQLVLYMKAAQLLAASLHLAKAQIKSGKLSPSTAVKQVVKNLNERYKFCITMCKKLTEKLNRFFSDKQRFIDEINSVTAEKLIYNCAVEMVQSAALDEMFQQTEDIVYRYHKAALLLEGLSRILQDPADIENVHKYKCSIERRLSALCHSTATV
Sequence of CSNK1G3 (Q9Y6M4 whole entry): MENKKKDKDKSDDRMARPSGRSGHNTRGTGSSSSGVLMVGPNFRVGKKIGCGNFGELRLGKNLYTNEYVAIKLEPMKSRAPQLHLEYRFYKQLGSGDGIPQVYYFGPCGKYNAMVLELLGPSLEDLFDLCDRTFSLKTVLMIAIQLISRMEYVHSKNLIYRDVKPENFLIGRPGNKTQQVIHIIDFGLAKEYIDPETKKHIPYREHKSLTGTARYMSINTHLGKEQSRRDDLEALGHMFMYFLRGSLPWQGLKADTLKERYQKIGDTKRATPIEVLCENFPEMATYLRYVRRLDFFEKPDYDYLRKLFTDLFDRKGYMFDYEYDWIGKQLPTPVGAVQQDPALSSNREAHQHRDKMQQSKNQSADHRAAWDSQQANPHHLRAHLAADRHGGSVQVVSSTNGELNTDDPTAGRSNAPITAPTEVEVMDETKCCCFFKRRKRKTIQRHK
T1 sequence (P45985 whole entry): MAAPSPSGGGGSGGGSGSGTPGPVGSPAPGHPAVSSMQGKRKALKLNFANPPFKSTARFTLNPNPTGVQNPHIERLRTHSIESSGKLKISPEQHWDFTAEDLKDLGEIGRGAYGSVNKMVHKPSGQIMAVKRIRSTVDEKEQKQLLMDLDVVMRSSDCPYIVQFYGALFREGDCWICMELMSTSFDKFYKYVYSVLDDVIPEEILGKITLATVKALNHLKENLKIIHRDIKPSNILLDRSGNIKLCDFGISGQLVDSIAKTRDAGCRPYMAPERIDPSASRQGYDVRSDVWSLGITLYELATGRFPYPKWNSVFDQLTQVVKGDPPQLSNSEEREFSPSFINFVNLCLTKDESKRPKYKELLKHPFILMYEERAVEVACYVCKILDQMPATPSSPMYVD
Sequence of IRAK3 (Q9Y616 whole entry): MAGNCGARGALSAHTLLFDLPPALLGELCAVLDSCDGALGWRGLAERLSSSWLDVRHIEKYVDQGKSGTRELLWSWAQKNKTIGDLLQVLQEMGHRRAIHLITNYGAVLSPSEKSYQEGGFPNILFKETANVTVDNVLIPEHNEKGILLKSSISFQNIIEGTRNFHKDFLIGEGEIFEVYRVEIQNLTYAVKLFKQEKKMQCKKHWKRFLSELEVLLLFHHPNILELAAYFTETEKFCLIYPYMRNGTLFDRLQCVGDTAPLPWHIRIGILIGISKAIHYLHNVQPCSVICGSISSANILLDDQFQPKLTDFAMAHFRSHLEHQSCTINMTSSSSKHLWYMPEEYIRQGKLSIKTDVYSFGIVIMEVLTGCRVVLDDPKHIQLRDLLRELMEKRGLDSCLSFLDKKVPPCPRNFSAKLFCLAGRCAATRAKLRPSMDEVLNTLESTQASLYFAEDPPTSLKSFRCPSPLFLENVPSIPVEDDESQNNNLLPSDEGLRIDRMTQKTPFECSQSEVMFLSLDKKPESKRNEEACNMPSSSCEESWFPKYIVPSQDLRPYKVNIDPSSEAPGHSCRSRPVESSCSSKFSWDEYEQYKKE
Sequence of PAK4 (O96013 whole entry): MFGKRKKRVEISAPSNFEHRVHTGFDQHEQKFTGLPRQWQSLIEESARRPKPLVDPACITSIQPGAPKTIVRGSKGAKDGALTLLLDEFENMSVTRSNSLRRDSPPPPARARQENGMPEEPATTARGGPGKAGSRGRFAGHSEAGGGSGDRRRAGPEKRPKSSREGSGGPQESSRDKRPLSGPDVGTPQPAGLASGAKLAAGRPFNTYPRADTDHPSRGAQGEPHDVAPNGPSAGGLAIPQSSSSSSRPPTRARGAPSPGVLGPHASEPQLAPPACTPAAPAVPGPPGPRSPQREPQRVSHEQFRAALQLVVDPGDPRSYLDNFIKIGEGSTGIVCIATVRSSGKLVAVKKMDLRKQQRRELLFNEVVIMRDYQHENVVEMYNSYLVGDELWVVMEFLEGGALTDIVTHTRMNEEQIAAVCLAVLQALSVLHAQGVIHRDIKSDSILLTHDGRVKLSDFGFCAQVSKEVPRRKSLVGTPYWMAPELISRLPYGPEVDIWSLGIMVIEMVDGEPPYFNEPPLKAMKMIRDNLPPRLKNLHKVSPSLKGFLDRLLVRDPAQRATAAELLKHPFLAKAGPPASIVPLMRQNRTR
Sequence of KIT(D816H) (P10721 whole entry D816H): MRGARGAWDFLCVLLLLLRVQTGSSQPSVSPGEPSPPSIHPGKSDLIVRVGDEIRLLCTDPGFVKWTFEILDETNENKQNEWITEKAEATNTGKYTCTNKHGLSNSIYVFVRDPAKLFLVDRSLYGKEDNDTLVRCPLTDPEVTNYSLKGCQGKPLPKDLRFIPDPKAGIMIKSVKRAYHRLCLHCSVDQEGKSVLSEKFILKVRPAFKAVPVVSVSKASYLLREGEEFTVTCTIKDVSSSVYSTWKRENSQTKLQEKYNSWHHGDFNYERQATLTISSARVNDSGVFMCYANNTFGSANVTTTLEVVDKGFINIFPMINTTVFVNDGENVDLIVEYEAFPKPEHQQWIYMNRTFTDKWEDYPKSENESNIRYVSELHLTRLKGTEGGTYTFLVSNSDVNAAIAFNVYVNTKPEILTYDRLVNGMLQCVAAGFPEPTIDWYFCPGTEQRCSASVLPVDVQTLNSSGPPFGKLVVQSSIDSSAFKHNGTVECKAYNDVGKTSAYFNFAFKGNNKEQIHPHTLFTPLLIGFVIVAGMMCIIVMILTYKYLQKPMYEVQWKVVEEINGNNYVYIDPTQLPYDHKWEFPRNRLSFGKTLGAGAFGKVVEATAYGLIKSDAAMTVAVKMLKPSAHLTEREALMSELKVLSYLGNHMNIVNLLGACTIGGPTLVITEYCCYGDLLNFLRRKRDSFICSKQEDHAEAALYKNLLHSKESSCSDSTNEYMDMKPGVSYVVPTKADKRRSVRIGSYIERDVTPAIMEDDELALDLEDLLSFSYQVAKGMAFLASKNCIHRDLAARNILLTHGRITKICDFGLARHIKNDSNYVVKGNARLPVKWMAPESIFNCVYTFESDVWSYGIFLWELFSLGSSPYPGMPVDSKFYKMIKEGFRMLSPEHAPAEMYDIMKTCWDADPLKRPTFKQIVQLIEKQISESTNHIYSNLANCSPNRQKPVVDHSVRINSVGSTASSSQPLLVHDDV
Sequence of ULK3 (Q6PHR2 whole entry): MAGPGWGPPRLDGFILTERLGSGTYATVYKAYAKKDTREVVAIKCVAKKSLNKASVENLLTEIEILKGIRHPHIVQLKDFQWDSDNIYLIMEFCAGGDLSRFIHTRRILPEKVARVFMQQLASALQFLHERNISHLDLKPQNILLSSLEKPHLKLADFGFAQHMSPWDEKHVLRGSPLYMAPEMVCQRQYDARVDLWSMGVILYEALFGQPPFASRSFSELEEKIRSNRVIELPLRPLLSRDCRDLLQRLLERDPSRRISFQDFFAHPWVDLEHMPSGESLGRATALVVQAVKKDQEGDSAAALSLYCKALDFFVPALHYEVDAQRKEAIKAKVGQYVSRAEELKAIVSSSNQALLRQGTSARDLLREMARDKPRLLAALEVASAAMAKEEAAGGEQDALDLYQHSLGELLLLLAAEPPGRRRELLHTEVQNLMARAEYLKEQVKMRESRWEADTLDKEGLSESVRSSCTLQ

- remaining binding at 100 µM (PRKD3): 92%
- remaining binding at 100 µM (CSNK1G3): 100%
- remaining binding at 100 µM (MET(M1250T)): 73%
- remaining binding at 100 µM (EGFR(S752-I759del)): 66%
- remaining binding at 100 µM (ULK2): 75%
- remaining binding at 100 µM (MEK4): 74%
- remaining binding at 100 µM (EGFR(E746-A750del)): 62%
- remaining binding at 100 µM (IGF1R): 82%
- remaining binding at 100 µM (EPHB3): 62%
- remaining binding at 100 µM (MAP3K1): 60%
- remaining binding at 100 µM (MAP4K3): 90%
- remaining binding at 100 µM (FER): 75%
- remaining binding at 100 µM (ASK1): 81%
- remaining binding at 100 µM (DCAMKL2): 87%
- remaining binding at 100 µM (IRAK3): 100%
- remaining binding at 100 µM (PAK4): 74%
- remaining binding at 100 µM (KIT(D816H)): 46%
- remaining binding at 100 µM (MLCK): 98%
- remaining binding at 100 µM (GSK3B): 82%
- remaining binding at 100 µM (ULK3): 77%
- remaining binding at 100 µM (LTK): 79%
- remaining binding at 100 µM (PKMYT1): 86%
SMILES: C=C(C)[C@H]1CC=C(C)C(=O)C1 [S-carvone]

Source: article PMC10174618, “Monoterpenoid aryl hydrocarbon receptor allosteric antagonists protect against ultraviolet skin damage in female mice” (Nature Communications, 2023)
